Each structure is given as a SMILES string.

Test [1] deals with NF-κB target genes (786-O cells). The test can be described thus: RT-qPCR of NF-κB target genes after NF-κB inhibitor, 786-O. The following applies: 0.006 μM bortezomib or 0.6 µM Bay 11-7085, 24 hours. It is filed as cell-based, human. Here is the method: (§1) Colony formation of parental (WT) or PBRM1 knockout (KO) 786-O cells expressing shRNA against non-targeting control (NC), RELA, or NFKB1 cultured with a) 10% or b) 2% serum. c) Gene expression changes of NF-κB target genes in 786-O cells treated with 0.006 μM bortezomib (BTZ) or 0.6 µM Bay 11-7085 for 24 hours (n=3 technical replicates). * p-value<0.05 (two-sided t-test). […] A positive log fold change refers to gain in bortezomib treatment over DMSO. g) Colony formation of 786-O isogenic cells and h) NCC432 isogenic cells treated with bortezomib for a week. Tumor formation of isogenic 786-O cells (i) and NCC432 cells (j) treated with PBS control or 0.5 mg/kg bortezomib (BTZ) in NSG mice. (n=10 tumors per group for 786-O, and n=16 tumors for NCC432 PBS EV group and 12 tumors for NCC432 PBS PBRM1 group and 14 tumors for both NCC432 EV and PBRM1 BTZ groups). Data are presented as mean values+/−SEM. k) Model for the study.

Test [2] relates to SMARCA4 and RELA interaction. The test is described as follows: Co-immunoprecipitation of RELA with SMARCA4 after bortezomib. It is filed as cell-based, human. The note with it: bortezomib treatment. The text has this: Data are presented as median+/−25%. Lower whisker is smallest observation greater than or equal to 25% quantile-1.5*interquantile range (IQR). Upper whisker represents the largest observation less than or equal to 75%+1.5*IQR. Amount of normalized RELA protein in the c) input or d) co-immunoprecipitated with SMARCA4 from 3 independent runs. […]

In test [3] the test system is 786-O cells. The test can be described thus: Colony formation, 786-O isogenic cells. It is filed as cell-based, human. Here is the method:
as §1
Data are presented as median+/−25%. […] Data are presented as mean values+/−SD. e) Tornado plots of RELA and SMARCA4 ChIP-seq signals in parental 786-0 or PBRM1-KO 786-O cells treated with DMSO or 0.005 μM bortezomib for 9 hours. f) Kaplan-Meier curves of NSG mice bearing 786-O isogenic cells treated with PBRM1 control or 0.5 mg/kg bortezomib (WT: n=10 PBS arm, median survival=39 days; n=10 bortezomib arm, median survival=52 days, HR=4.1, p=3E-6, log rank test; KO: n=10 PBS arm, median survival=35 days, n=10 bortezomib arm, median survival=66 days, HR=4.1, p=3E-6, log rank test). g) Kaplan-Meier curves of NSG mice bearing NCC432 isogenic cells treated with PBRM1 control or 0.5 mg/kg bortezomib (EV: n=16 PBS arm, median survival=42 days; n=14 bortezomib arm, median survival=49 days, HR=2.5, p=0.0009, log rank test; PBRM1: n=12 PBS arm, median survival=55 days; n=14 bortezomib arm, median survival=58 days, HR=1.2, p=0.5, log rank test). h) 786-O PBRM1 WT or KO cells were screened against the high-specific SGC epigenetic probe collection and cell viability was measured by colony formation after 1 week of treatment relative to DMSO control. […]

Test [4] relates to 786-O tumors. The test can be described thus: Tumor formation and survival of NSG mice bearing 786-O isogenic cells. It is filed as in vivo. The following applies: for median survival: 0.5 mg/kg bortezomib arm n=10; for HR: bortezomib vs PBS, p=3E-6, log rank test. The method, then:
as §1
Data are presented as median+/−25%. Lower whisker is smallest observation greater than or equal to 25% quantile-1.5*interquantile range (IQR). Upper whisker represents the largest observation less than or equal to 75%+1.5*IQR. Amount of normalized RELA protein in the c) input or d) co-immunoprecipitated with SMARCA4 from 3 independent runs. Data are presented as mean values+/−SD. e) Tornado plots of RELA and SMARCA4 ChIP-seq signals in parental 786-0 or PBRM1-KO 786-O cells treated with DMSO or 0.005 μM bortezomib for 9 hours. f) Kaplan-Meier curves of NSG mice bearing 786-O isogenic cells treated with PBRM1 control or 0.5 mg/kg bortezomib (WT: n=10 PBS arm, median survival=39 days; n=10 bortezomib arm, median survival=52 days, HR=4.1, p=3E-6, log rank test; KO: n=10 PBS arm, median survival=35 days, n=10 bortezomib arm, median survival=66 days, HR=4.1, p=3E-6, log rank test). g) Kaplan-Meier curves of NSG mice bearing NCC432 isogenic cells treated with PBRM1 control or 0.5 mg/kg bortezomib (EV: n=16 PBS arm, median survival=42 days; n=14 bortezomib arm, median survival=49 days, HR=2.5, p=0.0009, log rank test; PBRM1: n=12 PBS arm, median survival=55 days; n=14 bortezomib arm, median survival=58 days, HR=1.2, p=0.5, log rank test). h) 786-O PBRM1 WT or KO cells were screened against the high-specific SGC epigenetic probe collection and cell viability was measured by colony formation after 1 week of treatment relative to DMSO control.
All animal studies were conducted in compliance with animal protocols approved by Institutional Animal Care and Use Committee (IACUC) of Singapore. Female NOD/SCID mice (8-10 week old) were implanted subcutaneously with 1×10^6 786-0 cells with either wildtype PBRM1 or PBRM1 knocked out subcutaneously. Male NSG mice (The Jackson laboratory) were implanted with 1×10^6 A498, NCC2112 or NCC432 with or without PBRM1. Tumor volume was monitored every 3-4 days. Tumor volume was calculated as (length×width×width)×π/6. Animals were sacrificed when the tumor volume exceeded 2000 mm^3.
Bortezomib […] was given twice weekly (day1, day 4) to male NSG mice (The Jackson laboratory) via the tail vein. Tumor volume and body weight were monitored every 3-4 days.

Test [5] concerns IκBα / NF-κB. The note with it: mechanism; cited from earlier work.

For the compound `CC(C)C[C@H](NC(=O)[C@H](Cc1ccccc1)NC(=O)c1cnccn1)B(O)O` [bortezomib], the “suppressing the expression of NF-κB target genes” value in test [1] is “effective at suppressing the expression of NF-κB target genes”. The “effect on interaction between SMARCA4 and RELA” value in test [2] is on record as “did not significantly affect”. Besides, in test [3] (786-O with and without PBRM1, vs DMSO), the reducing colony formation result is “reducing colony formation”. Also, the “reduction of colony formation, PB1-deficient vs PB1-proficient isogenic cells” value in test [3] (786-O, a week) was “preferential reduction of colony formation”. Besides, the “survival, mice bearing PB1-deficient vs PB1-proficient cells” value in test [4] (0.5 mg/kg bortezomib) was “survived for a longer duration”. The “tumor response, PB1-deficient vs PB1-proficient isogenic cells” value in test [4] (0.5 mg/kg bortezomib, NSG mice) is “responded better”. The median survival in test [4] (786-O KO, PBS arm 35 days) is 66 days; in test [4] (786-O WT, PBS arm 39 days) it was 52 days. The HR in test [4] (786-O KO) and in test [4] (786-O WT) was 4.1 in each case. Moreover, the “selectivity for PB1-deficient tumors (summary)” value in test [4] (786-O and NCC432, Example 2 summary) was “selectively targets PB1-deficient tumors”. The “effect on IκBα and NF-κB DNA binding” value in test [5] is “induces nuclear translocation and accumulation of IκBα which then associates with nuclear NF-κB and inhibits its DNA binding activity”.

These data come from patent US20260357349A1, “METHODS OF IDENTIFYING AND TREATING CANCER” (Agency for Science, Technology and Research, priority 2022, published 2026).
